In the supplement of paper PMC5412046:
Structures can show the parent of a compound that is named as a salt.

Each compound was assayed on SB.msgc-1 (assay: AC50 for growth inhibition (viability) (log10 M); higher = less potent). Settings: SB.msgc-1 (sporadic gastric cancer).
Method in brief: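 Hereditary or sporadic patient-derived gastric cancer cells (500 cells in 5 μL medium per 1536 well) received 23 nL compound in DMSO by pintool. Dosing was 11 threefold dilutions starting at a final 46 μM. After 48 h, CellTiter-Glo was added for 30 min at room temperature and luminescence read on a ViewLux. Log half-maximal activity concentration came from a four-parameter fit of DMSO-normalised viability, keeping only high-quality curve classes.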
In the case of CCC[C@@H](NC(=O)[C@@H]1[C@H]2CCC[C@H]2CN1C(=O)[C@@H](NC(=O)[C@@H](NC(=O)c1cnccn1)C1CCCCC1)C(C)(C)C)C(=O)C(=O)NC1CC1 [Telaprevir], the “AC50 for growth inhibition (log10 M)” value is reported as -4.78. N=C(CCSCc1csc(N=C(N)N)n1)N[S+](N)(=O)[O-] [Famotidine] was tested, and the “AC50 for growth inhibition (log10 M)” value was -4.78. In the case of COc1ccc(CC2NCCc3cc(OC)c(OC)cc32)cc1OC (stereo not drawn) [Tetrahydropapaverine], the “AC50 for growth inhibition (log10 M)” value is reported as -4.78. In the case of c1cc2c(cc1[C@H]1OC[C@H]3[C@@H]1CO[C@@H]3c1ccc3c(c1)OCO3)OCO2 [Sesamin], the “AC50 for growth inhibition (log10 M)” value is reported as -5.33. With COc1cc(N2CCC(N3CCN(C)CC3)CC2)ccc1Nc1ncnc(Nc2ccccc2[S+](=O)([O-])C(C)C)n1 [ASP-3026] the “AC50 for growth inhibition (log10 M)” value was -4.88. In the case of Cl.O[C@@H](CNC[C@H](O)[C@H]1CCc2cc(F)ccc2O1)[C@@H]1CCc2cc(F)ccc2O1 [Nebivolol], the “AC50 for growth inhibition (log10 M)” value is reported as -4.93. With Cc1c(C(=O)Nc2ccc(N3C[C@@H](C)O[C@@H](C)C3)nc2)cccc1-c1ccc(OC(F)(F)F)cc1 [NVP-LDE-225] the “AC50 for growth inhibition (log10 M)” value was -4.83. With COc1cc2c(cc1O)CCC1C2CC[C@@]2(C)C1CC[C@@H]2O (stereo partly drawn) [2-Methoxyestradiol] the “AC50 for growth inhibition (log10 M)” value was -5.33. In the case of Cc1nnc(N[S+](=O)([O-])c2ccc(N)cc2)s1 [Sulfamethizole], the “AC50 for growth inhibition (log10 M)” value is reported as -5.43. In the case of C=C(C)[C@@H]1CC[C@]2(C(=O)O)CC[C@]3(C)[C@H](CC[C@@H]4[C@@]5(C)CC[C@H](O)C(C)(C)[C@@H]5CC[C@]43C)[C@@H]12 [Betulinic acid], the “AC50 for growth inhibition (log10 M)” value is reported as -4.83. For C[S+](=O)([O-])CCNCc1ccc(-c2ccc3ncnc(Nc4ccc(OCc5cccc(F)c5)c(Cl)c4)c3c2)o1 [Lapatinib], the “AC50 for growth inhibition (log10 M)” value was -7.93. In the case of OCCN(CCO)c1nc(N2CCCCC2)c2nc(N(CCO)CCO)nc(N3CCCCC3)c2n1 [Dipyridamole], the “AC50 for growth inhibition (log10 M)” value is reported as -4.68. C[C@@]1(C(=O)Nc2ccc(F)nc2)CCCN1c1nc(Nc2cc(C3CC3)[nH]n2)c2cccn2n1 was tested, and the “AC50 for growth inhibition (log10 M)” value was -4.73. In the case of O=C(C[C@@H]1C/C=C\CCC(=O)O[C@H](c2ccccc2)CNC1=O)NCc1ccc(Cl)cc1 [Robotnikinin], the “AC50 for growth inhibition (log10 M)” value is reported as -5.43. With Cc1csc(NC(=O)c2sc3nc4c(c(C(F)(F)F)c3c2N)CCC4)n1 [Irestatin 9389] the “AC50 for growth inhibition (log10 M)” value was -4.68. For CN(C)CCCC1(c2ccc(F)cc2)OCc2cc(C#N)ccc21 (stereo not drawn) [Citalopram hydrobromide], the “AC50 for growth inhibition (log10 M)” value was -4.83. For CN1\C=N/C2=CC=C(NC3=CC(=CC=C3C)NC(=O)C4=CC(=CC=C4)C(C)(C)C#N)C=C2C1=O [AZ-628], the “AC50 for growth inhibition (log10 M)” value was -5.23. In the case of COc1ccc(C(=O)c2c(C)n(CCN3CCOCC3)c3cc(I)ccc23)cc1 [AM-630], the “AC50 for growth inhibition (log10 M)” value is reported as -4.63. In the case of Cc1cc(OCCC[S+](C)(=O)[O-])cc(C)c1-c1cccc(COc2ccc3c(c2)OC[C@H]3CC(=O)O)c1 [TAK-875], the “AC50 for growth inhibition (log10 M)” value is reported as -4.78. For Cc1ccccc1C(C(=O)NC1CCCC1)N(C(=O)Cn1cnc2ccccc21)c1cccc(F)c1 (stereo not drawn), the “AC50 for growth inhibition (log10 M)” value was -4.63. In the case of CC(=O)Nc1nc(C)c(-c2ccc(Cl)c([S+](=O)([O-])NCCO)c2)s1 [PIK-93], the “AC50 for growth inhibition (log10 M)” value is reported as -5.83. With NC/1=N/C(=O)N/C=C1F [Flucytosine] the “AC50 for growth inhibition (log10 M)” value was -4.88. With O=NN(CCCl)C(=O)NC1CCCCC1 [Lomustine] the “AC50 for growth inhibition (log10 M)” value was -4.83. With COc1cc(N2CCN(C)CC2)ccc1Nc1nc(N)c(C(=O)c2c(Cl)cccc2Cl)s1 the “AC50 for growth inhibition (log10 M)” value was -5.18. CC[C@H](C)C(=O)O[C@H]1C[C@@H](C)\C=C2\C=C/[C@H](C)[C@H](CC[C@@H]3C[C@@H](O)CC(=O)O3)[C@@H]12 [Lovastatin] was tested, and the “AC50 for growth inhibition (log10 M)” value was -4.73. With O=C(O)c1cccc(-c2noc(-c3ccccc3F)n2)c1 [PTC-124] the “AC50 for growth inhibition (log10 M)” value was -4.83. In the case of COC(=O)Nc1nc2cc(C(=O)c3ccccc3)ccc2[nH]1 [Mebendazole], the “AC50 for growth inhibition (log10 M)” value is reported as -5.48. Cc1ccc(C(N)=O)cc1Nc1nccc(-c2cn(C(C)C)c3cnccc23)n1 was tested, and the “AC50 for growth inhibition (log10 M)” value was -5.28. With CC(NC1=CC=CC=C1)C\2=C\C(=C/N3C(=O)\C=C(/N=C23)N4CCOCC4)C (stereo not drawn) [TGX-221] the “AC50 for growth inhibition (log10 M)” value was -5.58. For CC1(C)CCC(C)(C)c2cc(NC(=O)c3ccc(C(=O)O)cc3)ccc21 [Tamibarotene], the “AC50 for growth inhibition (log10 M)” value was -5.38. For c1ccc(-c2nn3c(c2-c2ccnc4cc(OCCN5CCOCC5)ccc24)CCC3)nc1, the “AC50 for growth inhibition (log10 M)” value was -4.68. Cc1cc(NC(=O)Nc2ccc(N(C)C)cc2)c2cc(F)cc(F)c2n1 was tested, and the “AC50 for growth inhibition (log10 M)” value was -5.08. For C[C@H](c1ccc(F)cc1CCCC(=O)O)N(c1cc(F)ccc1F)[S+](=O)([O-])c1ccc(Cl)cc1, the “AC50 for growth inhibition (log10 M)” value was -4.78. CC(C)(C)OC(=O)CN(Cc1ccc(Cl)cc1)Cc1ccc([N+](=O)[O-])s1 [GSK-4112] was tested, and the “AC50 for growth inhibition (log10 M)” value was -4.68. In the case of O=C(NOCC(O)CO)c1cc(Br)c(F)c(F)c1Nc1ccc(I)cc1F (stereo not drawn), the “AC50 for growth inhibition (log10 M)” value is reported as -5.88. With Nc1cccc([S+](=O)([O-])N2CCCN([S+](=O)([O-])c3ccc4c(c3)OCCO4)CC2)c1 the “AC50 for growth inhibition (log10 M)” value was -4.88. For NC(=O)c1noc([C@H](CCCC2CCCCC2)CC(=O)NO)n1, the “AC50 for growth inhibition (log10 M)” value was -4.93. Cc1c(-c2cccc3c(CCCOc4cccc5ccccc45)c(C(=O)O)n(Cc4cccnc4)c23)c(COc2ccc(N3CCN([S+](=O)([O-])N(C)C)CC3)cc2)nn1C was tested, and the “AC50 for growth inhibition (log10 M)” value was -4.63. In the case of CC(C)[C@H](CO)Nc1nc(Nc2cccc(Cl)c2)c2ncn(C(C)C)c2n1 [Purvalanol A], the “AC50 for growth inhibition (log10 M)” value is reported as -4.68. For COc1ccc(N(C(=O)Oc2c(C)cccc2C)c2ccnc(Nc3ccc(N4CCN(C)CC4)cc3)n2)c(OC)c1, the “AC50 for growth inhibition (log10 M)” value was -5.43. In the case of O=C(O)CCC1CCC(c2cc(F)ccc2F)([S+](=O)([O-])c2ccc(Cl)cc2)CC1 (stereo not drawn) [MK-0752], the “AC50 for growth inhibition (log10 M)” value is reported as -4.98. With O=C(/C=C/c1cccnc1)NCCCCC1CCN(C(=O)c2ccccc2)CC1 [Daporinad] the “AC50 for growth inhibition (log10 M)” value was -6.08. CC(C)(C)[C@]1(O)C[C@@H]2OC(=O)C[C@@]23C(=O)O[C@@H]2OC(=O)[C@H](O)C213 (stereo partly drawn) [Bilobalide] was tested, and the “AC50 for growth inhibition (log10 M)” value was -4.93. C[N]1C=C(C=N1)C2=CC=C3N=CC\4=C(N(C(=O)\C=C4)C5=CC6=C(CCN6C(=O)C=C)C=C5)C3=C2 was tested, and the “AC50 for growth inhibition (log10 M)” value was -4.98. O=c1cc(O)c(Cl)c[nH]1 [Gimeracil] was tested, and the “AC50 for growth inhibition (log10 M)” value was -4.68. In the case of CN(CCOc1ccc(CC2SC(=O)NC2=O)cc1)c1ccccn1 (stereo not drawn) [Rosiglitazone], the “AC50 for growth inhibition (log10 M)” value is reported as -5.18. COC1CCC(CC1)N(C(=O)C2CCC(C)CC2)C3=C(SC(=C3)\C4=C\CCCC4)C(O)=O (stereo not drawn) [VCH-916] was tested, and the “AC50 for growth inhibition (log10 M)” value was -5.28. CC(C)(C)c1cnc(CSc2cnc(NC(=O)C3CCNCC3)s2)o1 [SNS-032] was tested, and the “AC50 for growth inhibition (log10 M)” value was -7.18. With O=C(O)C(=O)c1cn(Cc2ccccc2)c2ccc(-c3ccc(OC(F)(F)F)cc3)cc12 [Tiplasinin] the “AC50 for growth inhibition (log10 M)” value was -5.13. With CCOc1ccc(Nc2nc(-c3c(C)nc4ccccn34)cs2)cc1 [JK 184] the “AC50 for growth inhibition (log10 M)” value was -6.43. In the case of COCCCN1CCC(NC(=O)c2cc(Cl)c(N)c3c2OCC3)CC1 [Prucalopride], the “AC50 for growth inhibition (log10 M)” value is reported as -4.58. In the case of CCCCC(F)(F)[C@@]1(O)CC[C@H]2[C@@H](CC(=O)[C@@H]2CCCCCCC(=O)O)O1 [Lubiprostone], the “AC50 for growth inhibition (log10 M)” value is reported as -4.78. CN(C)Cc1ccc(-c2nc3cccc4c3n2CCNC4=O)cc1 was tested, and the “AC50 for growth inhibition (log10 M)” value was -4.78. With O=C(O)c1ccc(O)c2ncc(N3CCOCC3)cc12 the “AC50 for growth inhibition (log10 M)” value was -4.78. With CC(C)[C@H](C(=O)Nc1ccc(C(=O)NO)cc1)c1ccccc1 [AR-42] the “AC50 for growth inhibition (log10 M)” value was -6.18. Cn1cnc([N+](=O)[O-])c1Sc1ncnc2nc[nH]c12 [Azathioprine] was tested, and the “AC50 for growth inhibition (log10 M)” value was -5.43. In the case of CC(C)CN(C[C@@H](O)[C@H](Cc1ccccc1)NC(=O)O[C@H]1CO[C@H]2OCC[C@H]21)S(=O)(=O)c1ccc(N)cc1 [Darunavir], the “AC50 for growth inhibition (log10 M)” value is reported as -5.63. For O=C(Nc1cccc(C(F)(F)F)c1)Nc1cc([S+](=O)([O-])NC2CC2)ccc1-c1ccsc1 [AGI-6780], the “AC50 for growth inhibition (log10 M)” value was -4.73. For N#C[C@@H]1C[C@@H]2C[C@@H]2N1C(=O)[C@@H](N)C12CC3CC(CC(O)(C3)C1)C2 [Saxagliptin], the “AC50 for growth inhibition (log10 M)” value was -4.98. For N#CC1(c2cccc(C(=O)Nc3cc(Oc4ccc5nc(NC(=O)C6CC6)sc5n4)ccc3F)c2Cl)CC1 [Takeda-6d], the “AC50 for growth inhibition (log10 M)” value was -5.73. With COC(=O)Nc1ccc(-c2nc(N3CCOCC3)c3cnn(C4CCN(C(=O)OC)CC4)c3n2)cc1 [WYE-354] the “AC50 for growth inhibition (log10 M)” value was -6.03. In the case of O=C(NOC[C@H](O)CO)c1ccc(F)c(F)c1Nc1ccc(I)cc1F, the “AC50 for growth inhibition (log10 M)” value is reported as -6.33. In the case of COC[C@H]1OC(=O)C2=COC3=C2[C@@]1(C)\C4=C(C5CCC(=O)[C@@]5(C)C[C@H]4OC(C)=O)/C3=O (stereo partly drawn) [Wortmannin], the “AC50 for growth inhibition (log10 M)” value is reported as -4.83. With Cn1cnc2c(F)c(Nc3ccc(Br)cc3F)c(C(=O)NOCCO)cc21 [ARRY-162] the “AC50 for growth inhibition (log10 M)” value was -6.63. CC(C)CC(=O)Nc1n[nH]c2c1CN(C(=O)C1CCN(C)CC1)C2(C)C was tested, and the “AC50 for growth inhibition (log10 M)” value was -5.83. For C/C=C/C[C@@H](C)C(=O)[C@H]1C(=O)N[C@@H](C(C)C)C(=O)N(C)CC(=O)N(C)[C@@H](CC(C)C)C(=O)N[C@@H](C(C)C)C(=O)N(C)[C@@H](CC(C)C)C(=O)N[C@@H](C)C(=O)N[C@H](C)C(=O)N(C)[C@@H](CC(C)C)C(=O)N(C)[C@@H](CC(C)C)C(=O)N(C)[C@@H](C(C)C)C(=O)N1C [Valspodar], the “AC50 for growth inhibition (log10 M)” value was -5.08. With CC(=O)[C@H]1CC[C@H]2[C@@H]3C/C=C4/C[C@@H](O)CC[C@]4(C)[C@H]3CC[C@]12C [Pregnenolone] the “AC50 for growth inhibition (log10 M)” value was -4.88. With Cc1cccc(Nc2nc(-c3ccncc3)cs2)c1 the “AC50 for growth inhibition (log10 M)” value was -4.68.
